Where two headings read alike, the source gives them in different places. Numbered stars: 1 amine (or outer) side, 2 acyl side, 3 side chain; on linkers, the order of the positions; unused ones are H or OH. Bridge positions count the residues as written; N and C are the ends. Square brackets hold non-standard residues; d marks the D form. Peptide text beside a SMILES is read from it. * marks the point of attachment. Trp(βS-Me,7-OMe) = COc1cccc2c([C@H](C)[C@H](N)C(=O)O)c[nH]c12; cBu(1-CO,cis-3-CH2NH) = O=C([C@H]1C[C@@H](CN[*:1])C1)[*:2]; Trp(4-Cl) = N[C@@H](Cc1c[nH]c2cccc(Cl)c12)C(=O)O; Trp(7-Cl) = N[C@@H](Cc1c[nH]c2c(Cl)cccc12)C(=O)O; Phe(4-COOH) = N[C@@H](Cc1ccc(C(=O)O)cc1)C(=O)O; Trp(7-aza) = N[C@@H](Cc1c[nH]c2ncccc12)C(=O)O; X10 = O=C([C@H](Cc1ccnc2ccccc12)N[*:1])[*:2]; Phe(4-CH2NH2) = NCc1ccc(C[C@H](N)C(=O)O)cc1; X2 = C[C@@H]1CC[C@@H](C(=O)[*:2])N([*:1])C1; αMeW = C[C@](N)(Cc1c[nH]c2ccccc12)C(=O)O; X1 = O=C([C@@H]1CC[C@H](N[*:1])C1)[*:2]; X6 = O=C([C@@H](N[*:1])C1(O)CC1)[*:2]; Pip(4-aza) = O=C(O)[C@@H]1CNCCN1; 4Pal = N[C@@H](Cc1ccncc1)C(=O)O; NMeE = CN[C@@H](CCC(=O)O)C(=O)O; αMeS = C[C@](N)(CO)C(=O)O; Carboxymethyl = O=C(O)C*; Nle = CCCC[C@H](N)C(=O)O; Sar = CNCC(=O)O
Assays:
[1] = biological target: T1, human TNFR1 extracellular domain (ECD) protein (Homo sapiens, UniProt P19438); assay: SPR binding affinity to captured human TNFR1 ECD
T1 construct: HRV 3C protease cleavage site (C); 6His (C, cleaved yes); made in house; host or cells: Sf21 insect cells (baculovirus), secreted
T1 sequence (P19438 30-211): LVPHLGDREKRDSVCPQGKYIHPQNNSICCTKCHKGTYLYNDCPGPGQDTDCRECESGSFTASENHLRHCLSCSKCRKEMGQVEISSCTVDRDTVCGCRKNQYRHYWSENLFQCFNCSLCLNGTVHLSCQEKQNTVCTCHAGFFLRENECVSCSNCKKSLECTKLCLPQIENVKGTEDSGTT
Method in brief: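 Biotinylated human TNFR1 or TNFR2 ECD (C-terminal Avi-tag, Sf21-expressed) captured on a regenerable streptavidin chip; peptide analytes flowed in 10 mM HEPES pH 7.4, 150 mM NaCl, 3 mM EDTA, 0.05% P20, 2% DMSO. kon and koff measured; affinity calculated from the rate constants.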

[2] = biological target: T2, TNFα-induced NF-κB signal transduction pathway (TNFR1 signaling) in THP-1 cells (Homo sapiens, UniProt P19438); assay: THP-1 Lucia NF-κB reporter cell assay, inhibition of TNFα-induced NF-κB signaling; type: cell-based
T2 sequence (P19438 30-455): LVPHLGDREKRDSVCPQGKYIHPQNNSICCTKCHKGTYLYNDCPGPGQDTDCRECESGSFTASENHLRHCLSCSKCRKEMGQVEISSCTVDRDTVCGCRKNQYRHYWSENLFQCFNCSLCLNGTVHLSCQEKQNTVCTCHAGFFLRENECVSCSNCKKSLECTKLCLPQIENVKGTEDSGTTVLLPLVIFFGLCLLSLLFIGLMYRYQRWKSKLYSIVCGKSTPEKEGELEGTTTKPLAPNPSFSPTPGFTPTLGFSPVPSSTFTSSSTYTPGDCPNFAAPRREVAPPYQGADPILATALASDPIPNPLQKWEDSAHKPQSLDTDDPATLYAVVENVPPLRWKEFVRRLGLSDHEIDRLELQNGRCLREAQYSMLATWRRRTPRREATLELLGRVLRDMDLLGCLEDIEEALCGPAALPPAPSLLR
Method in brief: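 IC50 from a 4-parameter logistic fit of secreted luciferase luminescence (QUANTI-Luc), normalised to min/max controls. Reporter THP-1 cells were exposed to peptides for 1 h at 37 °C before 10 ng/mL TNFα (final) was added overnight (16–18 h).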

[3] = THP-1 NF-κB Lucia reporter cells, 10 ng/mL TNFα, 16-18 h, secreted luciferase; read-out: THP-1 IC50

SMILES | Kd [1] | IC50 [2, 3] | IC50 ([2]; read-out: THP-1 IC50; THP-1 NF-κB Lucia reporter cells, 10 ng/mL TNFα, 16-18 h, secreted luciferase)
CCCC[C@@H]1NC(=O)[C@H]2C[C@@H](CNC(=O)[C@H]([C@@H](C)c3c[nH]c4c(OC)cccc34)NC(=O)CN(C)C(=O)[C@H](Cc3ccc(O)cc3)NC(=O)[C@H](Cc3ccc(C(=O)O)cc3)NC(=O)[C@](C)(CO)NC(=O)[C@H](Cc3c[nH]c4c(Cl)cccc34)NC(=O)[C@H](Cc3ccncc3)NC(=O)[C@H](CC(N)=O)NC(=O)[C@H](CCC(=O)O)N(C)C(=O)[C@H](Cc3c[nH]c4ccccc34)NC(=O)[C@@H]3CNCCN3C(=O)[C@H](Cc3ccncc3)NC1=O)C2 [SEQ ID NO. 268] (cyclo([4Pal][Trp(7-Cl)][αMeS][Phe(4-COOH)]Y[Sar][Trp(βS-Me,7-OMe)][cBu(1-CO,cis-3-CH2NH)][Nle][4Pal][Pip(4-aza)]W[NMeE]N)) | 0.27 nM | 2 nM | –
CCCC[C@@H]1NC(=O)CSC[C@@H](C(N)=O)NC(=O)[C@H]([C@@H](C)c2c[nH]c3c(OC)cccc23)NC(=O)CN(C)C(=O)[C@H](Cc2ccc(O)cc2)NC(=O)[C@H](Cc2ccc(C(=O)O)cc2)NC(=O)[C@](C)(CO)NC(=O)[C@H](Cc2c[nH]c3c(Cl)cccc23)NC(=O)[C@H](Cc2ccncc2)NC(=O)[C@H](CC(N)=O)NC(=O)[C@H](CCC(=O)O)N(C)C(=O)[C@H](Cc2c[nH]c3ccccc23)NC(=O)[C@@H]2CC[C@@H](C)CN2C(=O)[C@H](Cc2ccncc2)NC1=O [SEQ ID NO. 272] ({CH2CO}-[Nle][4Pal][X2]W[NMeE]N[4Pal][Trp(7-Cl)][αMeS][Phe(4-COOH)]Y[Sar][Trp(βS-Me,7-OMe)]C-NH2; thioether N-14) | 0.1 nM | 2.6 nM | –
C[C@@]1(CO)NC(=O)[C@H](Cc2c[nH]c3ncccc23)NC(=O)[C@H](Cc2ccncc2)NC(=O)[C@H](CC(N)=O)NC(=O)[C@H]2CCCN2C(=O)[C@H](Cc2ccnc3ccccc23)NC(=O)[C@H](CO)NC(=O)[C@H](Cc2ccncc2)NC(=O)[C@H](CCC(N)=O)NC(=O)CSC[C@@H](C(N)=O)NC(=O)[C@H](Cc2c[nH]c3cccc(Cl)c23)NC(=O)[C@@H]2CCCN2C(=O)[C@H](Cc2ccc(O)cc2)NC(=O)[C@H](Cc2ccc(C(=O)O)cc2)NC1=O [SEQ ID NO. 278] ({CH2CO}-Q[4Pal]S[X10][dP]N[4Pal][Trp(7-aza)][αMeS][Phe(4-COOH)]YP[Trp(4-Cl)]C-NH2; thioether N-14) | 12.8 nM | 54.5 nM | –
CCCC[C@@H]1NC(=O)CSC[C@@H](C(N)=O)NC(=O)[C@](C)(Cc2c[nH]c3ccccc23)NC(=O)CN(C)C(=O)[C@H](Cc2ccc(O)cc2)NC(=O)[C@H](Cc2ccc(C(=O)O)cc2)NC(=O)[C@](C)(CO)NC(=O)[C@H](Cc2c[nH]c3c(Cl)cccc23)NC(=O)[C@H](Cc2ccncc2)NC(=O)[C@H](CC(N)=O)NC(=O)[C@H](CCC(=O)O)N(C)C(=O)[C@H](Cc2c[nH]c3ncccc23)NC(=O)[C@H](C2(O)CC2)NC(=O)[C@H](Cc2ccncc2)NC1=O [SEQ ID NO. 281] ({CH2CO}-[Nle][4Pal][X6][Trp(7-aza)][NMeE]N[4Pal][Trp(7-Cl)][αMeS][Phe(4-COOH)]Y[Sar][αMeW]C-NH2; thioether N-14) | 0.5 nM | 8.4 nM | –
CCCC[C@@H]1NC(=O)CSC[C@@H](C(N)=O)NC(=O)[C@](C)(Cc2c[nH]c3ccccc23)NC(=O)CN(C)C(=O)[C@H](Cc2ccc(O)cc2)NC(=O)[C@H](Cc2ccc(OCC(=O)O)cc2)NC(=O)[C@](C)(CO)NC(=O)[C@H](Cc2c[nH]c3c(Cl)cccc23)NC(=O)[C@H](Cc2ccncc2)NC(=O)[C@H](CC(N)=O)NC(=O)[C@H](CCC(=O)O)N(C)C(=O)[C@H](Cc2c[nH]c3ncccc23)NC(=O)[C@H](CO)NC(=O)[C@H](Cc2ccc(CN)cc2)NC1=O [SEQ ID NO. 283] ({CH2CO}-[Nle][Phe(4-CH2NH2)]S[Trp(7-aza)][NMeE]N[4Pal][Trp(7-Cl)][αMeS]Y(Carboxymethyl)Y[Sar][αMeW]C-NH2; thioether N-14) | 0.5 nM | 6.4 nM | –
CCCC[C@@H]1NC(=O)[C@@H]2CC[C@@H](C2)NC(=O)[C@H]([C@@H](C)c2c[nH]c3c(OC)cccc23)NC(=O)CN(C)C(=O)[C@H](Cc2ccc(O)cc2)NC(=O)[C@H](Cc2ccc(C(=O)O)cc2)NC(=O)[C@](C)(CO)NC(=O)[C@H](Cc2c[nH]c3c(Cl)cccc23)NC(=O)[C@H](Cc2ccc(C(=O)O)cc2)NC(=O)[C@H](CC(N)=O)NC(=O)[C@H](CCC(=O)O)N(C)C(=O)[C@H](Cc2c[nH]c3ccccc23)NC(=O)[C@@H]2CNCCN2C(=O)[C@H](Cc2ccncc2)NC1=O [SEQ ID NO. 288] (cyclo([4Pal][Pip(4-aza)]W[NMeE]N[Phe(4-COOH)][Trp(7-Cl)][αMeS][Phe(4-COOH)]Y[Sar][Trp(βS-Me,7-OMe)][X1][Nle])) | 0.1 nM | 4.2 nM | –
CN1CC(=O)N[C@@H](CC(N)=O)C(=O)N[C@@H](Cc2ccc(O)cc2)C(=O)N[C@@H](Cc2c[nH]c3ccccc23)C(=O)N[C@@H](CO)C(=O)N[C@@H](Cc2ccc(O)cc2)C(=O)N[C@@H](Cc2ccc(O)cc2)C(=O)N(C)CC(=O)N[C@@H](Cc2c[nH]c3ccccc23)C(=O)N[C@H](C(=O)NCC(=O)N[C@@H](CCC(=O)O)C(=O)N[C@@H](CCC(=O)O)C(N)=O)CSCC(=O)N[C@@H](Cc2ccccc2)C(=O)N[C@@H](Cc2ccc(O)cc2)C(=O)N[C@@H](CO)C(=O)N[C@@H](Cc2c[nH]c3ccccc23)C1=O [SEQ ID NO. 289] ({CH2CO}-FYSW[Sar]NYWSYY[Sar]WCGEE-NH2; thioether N-14) | 7.43 nM | – | 36.4 nM

Reference: US20240287138A1, “CYCLIC PEPTIDES FOR INHIBITING TNF RECEPTOR 1 ACTIVITY” (Merck Sharp & Dohme LLC, priority 2023, published 2024)
